Assay results published in patent US9102648B1, “Bioavailable diacylhydrazine ligands for modulating the expression of exogenous genes via an ecdysone receptor complex” (Intrexon Corporation, priority 2003, dated 2015).
pEC50: −log10 of the molar value. Read-outs that look alike come from different tables or passages of the source.

Assays:
[1] = target: T1, Bombyx mori EcR (VP16 fusion, CVBE switch construct) (Bombyx mori, UniProt P49881); experiment: Z3 Assay (HEK-293 cells with CVBE and 6XEcRE LacZ, β-galactosidase reporter); details: for fold induction at 3.3 µM: HEK293, read-out: Fold Induction, Z3 Assay, 3.3 uM; for fold induction at 33 µM: HEK293, read-out: Fold Induction, Z3 Assay, 33 uM; for Z3 assay Rel Max FI: maximum fold induction at any concentration relative to that of GS-E ligand; for Fold Induction, Z3 Assay, 3.3 uM: 3.3 uM ligand; for Fold Induction, Z3 Assay, 3.3 uM / Fold Induction, Z3 Assay, 33 uM: ligand treated / DMSO treated cells; for Fold Induction, Z3 Assay, 33 uM: 33 uM ligand
T1 sequence (P49881 86-606): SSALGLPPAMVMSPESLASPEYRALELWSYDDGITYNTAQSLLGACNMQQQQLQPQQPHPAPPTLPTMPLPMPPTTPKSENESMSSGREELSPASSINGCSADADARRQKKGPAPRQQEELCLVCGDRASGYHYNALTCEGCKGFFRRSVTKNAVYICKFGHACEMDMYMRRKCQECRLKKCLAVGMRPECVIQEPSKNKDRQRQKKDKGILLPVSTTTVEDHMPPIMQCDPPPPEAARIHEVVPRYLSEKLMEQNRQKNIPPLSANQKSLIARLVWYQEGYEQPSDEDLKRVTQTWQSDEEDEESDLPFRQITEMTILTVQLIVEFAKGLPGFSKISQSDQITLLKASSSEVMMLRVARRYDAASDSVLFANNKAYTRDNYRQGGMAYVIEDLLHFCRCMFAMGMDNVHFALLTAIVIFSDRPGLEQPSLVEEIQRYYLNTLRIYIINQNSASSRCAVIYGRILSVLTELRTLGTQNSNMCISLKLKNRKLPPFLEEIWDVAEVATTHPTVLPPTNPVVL
T1 sequence (P19793 1-462 partner): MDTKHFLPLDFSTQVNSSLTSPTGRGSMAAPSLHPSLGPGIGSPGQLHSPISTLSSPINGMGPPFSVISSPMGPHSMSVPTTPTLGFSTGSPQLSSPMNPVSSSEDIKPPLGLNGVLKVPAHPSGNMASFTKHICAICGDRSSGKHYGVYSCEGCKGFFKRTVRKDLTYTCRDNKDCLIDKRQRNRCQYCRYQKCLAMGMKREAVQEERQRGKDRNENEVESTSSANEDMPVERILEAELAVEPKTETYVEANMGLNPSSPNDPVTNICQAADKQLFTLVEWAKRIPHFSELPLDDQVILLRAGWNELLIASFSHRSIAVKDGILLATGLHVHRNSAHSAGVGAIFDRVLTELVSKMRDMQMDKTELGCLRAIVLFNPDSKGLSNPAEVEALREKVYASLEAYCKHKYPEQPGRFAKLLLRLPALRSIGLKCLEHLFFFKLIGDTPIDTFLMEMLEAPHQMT
Source text: Dr. F. Gage provided a population of stably transformed cells containing CVBE and 6XEcRE as described in Suhr, S. T., Gil, E. B., Senut M. C., Gage, F. H. (1998) Proc. Natl. Acad. Sci. USA 95, 7999-804. Human 293 kidney cells, also referred to as HEK-293 cells, were sequentially infected with retroviral vectors encoding first the switch construct CVBE, and subsequently the reporter construct 6XEcRE Lac Z. The switch construct contained the coding sequence for amino acids 26-546 from Bombyx mori EcR (BE) (Iatrou) inserted in frame and downstream of the VP16 transactivation domain (VBE). A synthetic ATG start codon was placed under the control of cytomegalovirus (CVBE) immediate early promoter and flanked by long terminal repeats (LTR). The reporter construct contained six copies of the ecdysone response element (EcRE) binding site placed upstream of LacZ and flanked on both sides with LTR sequences (6XEcRE).
Dilution cloning was used to isolate individual clones. Clones were selected using 450 ug/mL G418 and 100 ng/mL puromycin. Individual clones were evaluated based on their response in the presence and absence of test ligands.
Human 293 kidney cells stably transformed with CVBE and 6XEcRE LacZ were maintained in Minimum Essential Medium (Mediates, 10-010-CV) containing 10% FBS (Life Technologies, 26140-087), […] G418 (Mediates, 30-234-CR), and […] (Sigma, P-7255), at 37° C. in an atmosphere containing 5% CO2 and were subculture when they reached 75% confluence.
Z3 cells were seeded into 96-well tissue culture plates at a concentration of 2.5×10^3 cells per well and incubated at 37° C. in 5% CO2 for twenty-four hours. Stock solutions of ligands were prepared in DMSO. Ligand stock solutions were diluted 100 fold in media and 50 μL of this diluted ligand solution ([…]) was added to cells. The final concentration of DMSO was maintained at 0.03% in both controls and treatments.
Reporter gene expression was evaluated 48 hours after treatment of cells, β-galactosidase activity was measured using Gal Screen™ bioluminescent reporter gene assay system from Tropix (GSY1000). Fold induction activities were calculated by dividing relative light units (“RLU”) in ligand treated cells with RLU in DMSO treated cells. Luminescence was detected at room temperature using a Dynex MLX microtiter plate luminometer.
Flanking both constructs are long terminal repeats, G418 and puromycin are selectable markers, CMV is the cytomegalovirus promoter, VBE is coding sequence for amino acids 26-546 from Bombyx mori EcR inserted downstream of the VP16 transactivation domain, 6×EcRE is six copies of the ecdysone response element, lacZ encodes for the reporter enzyme β-galactosidase.
(§1) Each assay was conducted in two separate wells, and the two values were averaged. Fold inductions were calculated by dividing relative light units (“RLU”) in ligand treated cells with RLU in DMSO treated cells. EC50s were calculated from dose response data using a three-parameter logistic model.

[2] = target: GAL4 DBD-CfEcR(DEF)/VP16AD-MmRXRE (Choristoneura fumiferana, UniProt O77240); experiment: 13B3 Assay (CHO stable cell line, luciferase reporter); details: for 13B3 assay Rel Max FI: maximum fold induction at any concentration relative to that of GS-E ligand, CHO 13B3 cells; for fold induction at 3.3 µM: read-out: Fold Induction, 13B3 Assay, 3.3 uM; for Fold Induction, 13B3 Assay, 3.3 uM: 3.3 uM ligand; for Fold Induction, 13B3 Assay, 3.3 uM / Fold Induction, 13B3 Assay, 33 uM: RLU ligand treated / RLU DMSO treated cells; for Fold Induction, 13B3 Assay, 33 uM: 33 uM ligand
Source text: GAL4 DBD-CfEcR(DEF)/VP16AD-MmRXRE:
The wild-type D, E, and F domains from spruce budworm Choristoneura fumiferana EcR (“CfEcR-DEF”; SEQ ID NO: 1) were fused to a GALA DNA binding domain (“Gal4DBD1-147”; SEQ ID NO: 2) and placed under the control of the SV40e promoter of pM vector (PT3119-5, Clontech, Palo Alto, Calif.). The D and E domains from Mus Musculus RXR (“MmRXR-DE”; SEQ ID NO: 11) were fused to the transactivation domain from VP16 (“VP16AD”; SEQ ID NO: 6) and placed under the control of the SV40e promoter of the pVP16 vector (PT3127-5, Clontech, Palo Alto, Calif.).
CHO cells were transiently transfected with transcription cassettes for GAL4 DBD-CJEcR(DEF) and for VP16AD-MmRXRE controlled by SV40e promoters. Stably transfected cells were selected using Hygromycin. Individually isolated CHO cell clones were transiently transfected with a GALA RE-luciferase reporter (pFR-Luc, Stratagene, La Jolla, Calif.). The 13B3 clone was selected using Zeocin.
Cells were trypsinized and diluted to a concentration of 2.5×10^4 cells mL. 100 μL of cell suspension was placed in each well of a 96 well plate and incubated at 37° C. under 5% CO2 for 24 h. Ligand stock solutions were prepared in DMSO and diluted 300 fold for all treatments. Dose response testing consisted of 8 concentrations ranging from 33 μM to 0.01 μM.
Luciferase reporter gene expression was measured 48 h after cell treatment using Bright-Glo™ Luciferase Assay System from Promega (E2650). Luminescence was detected at room temperature using a Dynex MLX microtiter plate luminometer.
as §1

[3] = read-out: Z3 assay EC50, HEK-293 Z3 cells, β-galactosidase reporter, average of two wells
[4] = read-out: 13B3 EC50, CHO 13B3 stable cell line, luciferase reporter, 48 h, average of two wells

SMILES	pEC50 [1]	fold induction at 3.3 µM [1]	fold induction at 33 µM [1]	Z3 assay Rel Max FI ([1]; HEK-293 Z3 cells)	pEC50 [2]	13B3 assay Rel Max FI [2]	fold induction at 3.3 µM [2]	fold induction at 33 µM ([2]; read-out: Fold Induction, 13B3 Assay, 33 uM)	Fold Induction, Z3 Assay, 3.3 uM ([1]; average of two wells)	Fold Induction, Z3 Assay, 33 uM ([1]; average of two wells)	pEC50 [1, 3]	Fold Induction, 13B3 Assay, 3.3 uM ([2]; average of two wells)	Fold Induction, 13B3 Assay, 33 uM ([2]; average of two wells)	pEC50 [2, 4]
COc1cccc(C(=O)NN(C(=O)c2cc(C)cc(C)c2)C(C)(C)C)c1CSC [RG-115358, 3-Methoxy-2-methylsulfanylmethyl-benzoic acid N′-tert-butyl-N′-(3,5-dimethyl-benzoyl)-hydrazide]	5.02	33	769	0.48	< 4.30	0.20	1	584						
Cc1cc(C)cc(C(=O)N(NC(=O)c2cccc([N+](=O)[O-])c2C)C(C)(C)C)c1 [RG-100915]				0.912		0.552			532	1292	6.00	133	525	5.35
COc1cc(F)ccc1C(=O)N(NC(=O)c1cccc(OC)c1C)C(C)(C)C [RG-100524]				1.002					991	146	6.58		1211	
CCC(N(NC(=O)c1cccc(C)c1C)C(=O)c1cccc(C)c1)C(C)(C)C (centres unmarked) [RG-104074]				1.122		0.812			189	200	6.51	544	5378	6.06
CCc1c(C(=O)NN(C(=O)c2cc(F)c(Cl)cc2Cl)C(C)(C)C)ccc2c1OCCO2 [RG-115684]										498			151	
COc1cccc(C(=O)NN(C(=O)c2cc(C)cc(C)c2)C(C)(C)C)c1CS(C)(=O)=O [RG-115408, 2-methanesulfonylmethyl-3-methoxy-benzoic acid N′-tert-butyl-N′-(3,5-dimethyl-benzoyl)-hydrazide]	< 4.30	1	3	0.01	< 4.30	0	1							
CCc1c(OC)cccc1C(=O)NN(C(=O)c1cc(OC)c(C)c(OC)c1)C(C)(C)C#N [RG-115690]				0.998		1.181			571		6.68	930		6.20
CCc1c(OC)cccc1C(=O)NN(C(=O)c1cc(OC)c(O)c(OC)c1)C(C)(C)C [RG-115116]				0.960		1.172			276		5.48	2		< 4.30
CCc1c(OC)cccc1C(=O)NN(C(=O)c1ccccc1[N+](=O)[O-])C(C)(C)C [RG-115330]				0.860		0.711			633	432	6.73	1995	3577	5.24
CCc1c(OC)cccc1C(=O)NN(C(=O)c1cccc(Br)c1)C(C)(C)C#N [RG-115648]				0.182							4.67	9		
COc1cccc(C(=O)NN(C(=O)c2cc(C)cc(C)c2)C(C)(C)C)c1CF [RG-115160]				0.21		0			3	157	< 4.30	3	3	< 4.30
CCc1c(OC)cccc1C(=O)NN(C(=O)c1nc(SC)cnc1Cl)C(C)(C)C [RG-115716]										66		3		
